Experimental data: PMC9516332 (Frontiers in Oncology, 2022)
Where two headings read alike, the source gives them in different places.

Tests used:
Assay in all cases: Kinase panel profiling at 1 µmol/L (MSA or IMAP), percentage inhibition
Assay type in all cases: biochemical
[1] = target: panel of 255 wild-type kinases (Homo sapiens, UniProt P53779); conditions: read-out: %-inhibition at 1 µmol/L, JNK3
[2] = target: T1, panel of 255 wild-type kinases (Homo sapiens, UniProt P54753); conditions: read-out: %-inhibition at 1 µmol/L, EPHB3
T1 sequence (P54753 34-998): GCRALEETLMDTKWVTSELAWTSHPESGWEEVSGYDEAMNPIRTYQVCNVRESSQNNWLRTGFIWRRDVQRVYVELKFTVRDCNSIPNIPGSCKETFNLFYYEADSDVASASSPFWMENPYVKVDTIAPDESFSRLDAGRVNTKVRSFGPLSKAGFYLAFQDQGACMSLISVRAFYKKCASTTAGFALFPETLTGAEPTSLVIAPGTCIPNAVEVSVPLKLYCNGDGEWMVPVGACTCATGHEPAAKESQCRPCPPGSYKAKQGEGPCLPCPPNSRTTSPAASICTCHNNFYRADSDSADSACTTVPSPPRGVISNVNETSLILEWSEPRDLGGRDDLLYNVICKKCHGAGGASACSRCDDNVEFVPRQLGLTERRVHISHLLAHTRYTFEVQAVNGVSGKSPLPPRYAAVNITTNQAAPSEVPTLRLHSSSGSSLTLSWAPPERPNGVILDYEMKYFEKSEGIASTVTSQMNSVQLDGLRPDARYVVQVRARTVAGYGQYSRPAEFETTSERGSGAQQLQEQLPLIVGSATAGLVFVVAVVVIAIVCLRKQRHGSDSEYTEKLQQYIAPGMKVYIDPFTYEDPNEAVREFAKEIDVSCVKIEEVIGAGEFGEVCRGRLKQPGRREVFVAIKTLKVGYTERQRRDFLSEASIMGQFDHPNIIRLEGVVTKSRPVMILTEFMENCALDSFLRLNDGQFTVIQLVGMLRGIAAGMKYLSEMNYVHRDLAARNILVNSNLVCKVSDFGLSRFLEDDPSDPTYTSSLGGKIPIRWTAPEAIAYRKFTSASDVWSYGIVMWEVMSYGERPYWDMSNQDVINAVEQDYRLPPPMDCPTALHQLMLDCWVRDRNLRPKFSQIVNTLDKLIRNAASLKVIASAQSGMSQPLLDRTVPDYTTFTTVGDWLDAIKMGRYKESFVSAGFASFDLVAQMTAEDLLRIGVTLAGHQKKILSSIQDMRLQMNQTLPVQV

[3] = target: panel of 255 wild-type kinases (Homo sapiens, UniProt O96017); conditions: read-out: %-inhibition CHK2
[4] = target: panel of 255 wild-type kinases (Homo sapiens, UniProt Q9H1R3); conditions: read-out: %-inhibition at 1 µmol/L, skMLCK
[5] = target: panel of 255 wild-type kinases (Homo sapiens, UniProt P24723); conditions: read-out: %-inhibition at 1 µmol/L, PKCη
[6] = target: panel of 255 wild-type kinases (Homo sapiens, UniProt P29376); conditions: read-out: %-inhibition at 1 µmol/L, LTK
[7] = target: panel of 255 wild-type kinases (Homo sapiens, UniProt Q06187); conditions: read-out: %-inhibition BTK
[8] = target: panel of 255 wild-type kinases (Homo sapiens, UniProt O95819); conditions: read-out: %-inhibition at 1 µmol/L, HGK
[9] = target: T2, panel of 255 wild-type kinases (Homo sapiens, UniProt O00418); conditions: read-out: %-inhibition at 1 µmol/L, EEF2K
T2 sequence (O00418 1-725): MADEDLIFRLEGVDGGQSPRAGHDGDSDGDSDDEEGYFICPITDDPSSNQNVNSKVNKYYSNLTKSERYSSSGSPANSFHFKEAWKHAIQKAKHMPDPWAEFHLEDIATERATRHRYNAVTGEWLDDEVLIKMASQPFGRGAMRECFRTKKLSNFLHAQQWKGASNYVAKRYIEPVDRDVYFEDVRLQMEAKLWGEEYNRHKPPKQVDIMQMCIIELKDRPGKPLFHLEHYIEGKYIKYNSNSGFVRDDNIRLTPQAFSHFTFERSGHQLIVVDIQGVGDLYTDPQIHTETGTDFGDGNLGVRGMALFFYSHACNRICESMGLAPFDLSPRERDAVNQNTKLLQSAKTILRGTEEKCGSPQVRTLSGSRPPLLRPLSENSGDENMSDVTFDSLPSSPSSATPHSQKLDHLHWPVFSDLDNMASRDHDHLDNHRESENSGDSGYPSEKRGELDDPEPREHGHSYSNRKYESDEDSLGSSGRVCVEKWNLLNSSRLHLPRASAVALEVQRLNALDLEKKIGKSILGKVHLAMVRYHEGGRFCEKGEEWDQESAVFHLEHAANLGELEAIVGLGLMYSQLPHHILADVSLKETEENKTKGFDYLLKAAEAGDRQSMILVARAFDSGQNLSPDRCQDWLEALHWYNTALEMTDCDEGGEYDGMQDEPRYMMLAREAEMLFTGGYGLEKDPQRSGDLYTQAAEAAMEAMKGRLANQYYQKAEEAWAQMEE

[10] = target: panel of 255 wild-type kinases (Homo sapiens, UniProt P09769); conditions: read-out: %-inhibition at 1 µmol/L, FGR
[11] = kinase JNK3, 1 µmol/L single concentration
[12] = kinase EPHB3, 1 µmol/L single concentration
[13] = CHK2 kinase assay, 1 µmol/L single concentration
[14] = kinase skMLCK, 1 µmol/L single concentration
[15] = kinase PKCη, 1 µmol/L single concentration
[16] = kinase LTK, 1 µmol/L single concentration
[17] = BTK kinase assay, 1 µmol/L single concentration
[18] = kinase HGK, 1 µmol/L single concentration
[19] = kinase EEF2K, 1 µmol/L single concentration
[20] = kinase FGR, 1 µmol/L single concentration

Structure (SMILES) | inhibition at 1 µM [1, 11] | inhibition at 1 µM [2, 12] | inhibition at 1 µM [3, 13] | inhibition at 1 µM [4, 14] | inhibition at 1 µM [5, 15] | inhibition at 1 µM [6, 16] | inhibition at 1 µM [7, 17] | inhibition at 1 µM [8, 18] | inhibition at 1 µM [9, 19] | inhibition at 1 µM [10, 20] | inhibition at 1 µM [1] | inhibition at 1 µM [2] | inhibition at 1 µM [3] | inhibition at 1 µM [4] | inhibition at 1 µM [5] | inhibition at 1 µM [6] | inhibition at 1 µM [7] | inhibition at 1 µM [8] | inhibition at 1 µM [9] | inhibition at 1 µM [10]
CCc1nc(C(N)=O)c(Nc2ccc(N3CCC(N4CCN(C)CC4)CC3)c(OC)c2)nc1NC1CCOCC1 [gilteritinib] | 52% | 8% | 75% | 5% | 13% | 101% | 81% | 96% | -2.72% | 96% | – | – | – | – | – | – | – | – | – | –
CCN1C(=O)N(c2c(F)c(OC)cc(OC)c2F)Cc2cnc3[nH]c(CN4CCOCC4)cc3c21 [pemigatinib] | -7% | -2.52% | 3% | 30% | 5% | 1.66% | -5.29% | 4.64% | -3.26% | 17% | – | – | – | – | – | – | – | – | – | –
Cn1cc(-c2cc3c(N4CCN(c5ncc([C@@](C)(N)c6ccc(F)cc6)cn5)CC4)ncnn3c2)cn1 [avapritinib] | 2.14% | 3% | 5.47% | 1.29% | -5% | 51% | 13% | 37% | -1.21% | 66% | – | – | – | – | – | – | – | – | – | –
CNC(=O)c1ccc(-c2cnc3ncc(Cc4ccc5ncccc5c4)n3n2)cc1F [capmatinib] | – | – | – | – | – | – | – | – | – | – | 5% | 0.192% | -1.52% | -2% | -8.53% | 49% | 8% | 2.68% | -0.629% | -1.79%
C[C@H](Nc1ncnc2nc[nH]c12)c1cc2cccc(Cl)c2c(=O)n1-c1ccccc1 [duvelisib] | -10% | 4% | -3.49% | -7% | 0.743% | 0.216% | 1.85% | 2% | 0.762% | 3.24% | – | – | – | – | – | – | – | – | – | –
